# Biological target: human PD-L1 (Homo sapiens (Human), UniProt Q9NZQ7)
# Assay: T cell activation luciferase reporter cell culture system (T Cell Activation Assay)
# Assay type: cell-based
# Settings: luciferase reporter assay; PD-L1 aAPC/CHO-K1 cells with PD-1 effector Jurkat T cells
# Sequence of human PD-L1 (Q9NZQ7 19-290): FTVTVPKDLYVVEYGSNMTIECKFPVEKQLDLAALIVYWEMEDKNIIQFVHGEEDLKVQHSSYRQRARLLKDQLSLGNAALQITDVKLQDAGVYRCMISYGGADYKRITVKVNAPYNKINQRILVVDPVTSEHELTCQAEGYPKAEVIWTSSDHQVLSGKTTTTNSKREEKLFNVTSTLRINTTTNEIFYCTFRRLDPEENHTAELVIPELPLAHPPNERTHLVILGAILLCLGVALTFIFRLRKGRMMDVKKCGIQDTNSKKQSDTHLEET
row,Structure (SMILES),EC50 [µM]
1,"COc1cc(-c2nccc(-c3cccc(-c4ccc(CNC[C@@H]5CCC(=O)N5)c(OC)n4)c3Cl)c2Cl)cc(F)c1CNCC(C)C [Cmpd 83, (S)-5-((((6-(2-chloro-3-(3-chloro-2-(3-fluoro-4-((isobutylamino)methyl)-5-methoxyphenyl)pyridin-4-yl)phenyl)-2-methoxypyridin-3-yl)methyl)amino)methyl)pyrrolidin-2-one]",0.0662
2,"COc1cc(-c2nccc(-c3cccc(-c4ccc(CNCCO)c(OC)n4)c3Cl)c2Cl)cc2c1CN(CCCF)CC2 [Cmpd 84, 2-(((6-(2-chloro-3-(3-chloro-2-(2-(3-fluoropropyl)-8-methoxy-1,2,3,4-tetrahydroisoquinolin-6-yl)pyridin-4-yl)phenyl)-2-methoxypyridin-3-yl)methyl)amino)ethan-1-ol]",0.071
3,"COc1cc(-c2nccc(-c3cccc(-c4ccc(CNCCO)c(OC)n4)c3Cl)c2Cl)cc2c1CN(CCC1CCNCC1)CC2 [Cmpd 85, 2-(((6-(2-chloro-3-(3-chloro-2-(8-methoxy-2-(2-(piperidin-4-yl)ethyl)-1,2,3,4-tetrahydroisoquinolin-6-yl)pyridin-4-yl)phenyl)-2-methoxypyridin-3-yl)methyl)amino)ethan-1-ol]",0.142
4,"COc1nc(-c2cccc(-c3ccnc(-c4cc5c(=O)n(C)c(CNC6CC(C)(O)C6)nn5c4)c3Cl)c2Cl)ccc1CNC[C@@H]1CCC(=O)N1 (stereo partly drawn) [Cmpd 102, (S)-6-(3-chloro-4-(2-chloro-3-(6-methoxy-5-((((5-oxopyrrolidin-2-yl)methyl)amino)methyl)pyridin-2-yl)phenyl)pyridin-2-yl)-2-(((3-hydroxy-3-methylcyclobutyl)amino)methyl)-3-methylpyrrolo[2,1-f][1,2,4]triazin-4(3H)-one]",0.342
5,"COc1cc(-c2nccc(-c3cccc(-c4cc(Cl)c(CNC[C@@H]5CCC(=O)N5)c(OC)n4)c3Cl)c2Cl)ccc1CNCC(=O)O [Cmpd 105, (S)-(4-(3-chloro-4-(2-chloro-3-(4-chloro-6-methoxy-5-((((5-oxopyrrolidin-2-yl)methyl)amino)methyl)pyridin-2-yl)phenyl)pyridin-2-yl)-2-methoxybenzyl)glycine]",0.191
6,"COc1cc(-c2nccc(-c3cccc(-c4ccc(CNC[C@@H]5CCC(=O)N5)c(OC)n4)c3Cl)c2Cl)ccc1CNCC(=O)O [Cmpd 107, (S)-(4-(3-chloro-4-(2-chloro-3-(6-methoxy-5-((((5-oxopyrrolidin-2-yl)methyl)amino)methyl)pyridin-2-yl)phenyl)pyridin-2-yl)-2-methoxybenzyl)glycine]",0.253
7,"COc1cc(-c2nccc(-c3cccc(-c4ccc(CNC[C@@H]5CCC(=O)N5)c(OC)n4)c3Cl)c2Cl)ccc1CNCC(=O)OC(C)C [Cmpd 108, isopropyl (S)-(4-(3-chloro-4-(2-chloro-3-(6-methoxy-5-((((5-oxopyrrolidin-2-yl)methyl)amino)methyl)pyridin-2-yl)phenyl)pyridin-2-yl)-2-methoxybenzyl)glycinate]",0.14
8,"COc1nc(-c2cccc(-c3ccnc(-c4cnn(C5CNC5)c4)c3Cl)c2Cl)ccc1CNC[C@@H]1CCC(=O)N1 [Cmpd 119, (S)-5-((((6-(3-(2-(1-(azetidin-3-yl)-1H-pyrazol-4-yl)-3-chloropyridin-4-yl)-2-chlorophenyl)-2-methoxypyridin-3-yl)methyl)amino)methyl)pyrrolidin-2-one]",0.37
9,"COc1nc(-c2cccc(-c3ccnc(-c4cnn(CC5CNC5)c4)c3Cl)c2Cl)ccc1CNC[C@@H]1CCC(=O)N1 [Cmpd 120, (S)-5-((((6-(3-(2-(1-(azetidin-3-ylmethyl)-1H-pyrazol-4-yl)-3-chloropyridin-4-yl)-2-chlorophenyl)-2-methoxypyridin-3-yl)methyl)amino)methyl)pyrrolidin-2-one]",0.972
10,"COc1cc(-c2nccc(-c3cccc(-c4ccc(CNC[C@@H]5CCC(=O)N5)c(OC)n4)c3Cl)c2Cl)ccc1CNC1(C(=O)O)CC1 [Cmpd 121, (S)-1-((4-(3-chloro-4-(2-chloro-3-(6-methoxy-5-((((5-oxopyrrolidin-2-yl)methyl)amino)methyl)pyridin-2-yl)phenyl)pyridin-2-yl)-2-methoxybenzyl)amino)cyclopropane-1-carboxylic acid]",0.131
11,"COc1cc(-c2nccc(-c3cccc(-c4cc(Cl)c(CNC[C@@H]5CCC(=O)N5)c(OC)n4)c3Cl)c2Cl)ccc1CNCC(=O)OC(C)C [Cmpd 123, isopropyl (S)-(4-(3-chloro-4-(2-chloro-3-(4-chloro-6-methoxy-5-((((5-oxopyrrolidin-2-yl)methyl)amino)methyl)pyridin-2-yl)phenyl)pyridin-2-yl)-2-methoxybenzyl)glycinate]",0.129
12,"COc1cc(-c2nccc(-c3cccc(-c4ccc(CNC[C@@H]5CCC(=O)N5)c(OC)n4)c3Cl)c2Cl)ccc1CN[C@@H](C)C(=O)OC(C)C [Cmpd 125, isopropyl (4-(3-chloro-4-(2-chloro-3-(6-methoxy-5-(((((S)-5-oxopyrrolidin-2-yl)methyl)amino)methyl)pyridin-2-yl)phenyl)pyridin-2-yl)-2-methoxybenzyl)-L-alaninate]",0.361

# Stronger by EC50, values ahead:
row,EC50 [µM],Structure (SMILES)
1,0.0605,"COc1cc(-c2nccc(-c3cccc(-c4ccc(CNC[C@@H]5CCC(=O)N5)c(OC)n4)c3Cl)c2Cl)cc(F)c1CNC(C)C [Cmpd 82, (S)-5-((((6-(2-chloro-3-(3-chloro-2-(3-fluoro-4-((isopropylamino)methyl)-5-methoxyphenyl)pyridin-4-yl)phenyl)-2-methoxypyridin-3-yl)methyl)amino)methyl)pyrrolidin-2-one]"
2,0.0557,"COc1cc(-c2nccc(-c3cccc(-c4ccc(CNC[C@@H]5CCC(=O)N5)c(OC)n4)c3Cl)c2Cl)ccc1CNC[C@@H]1CCO1 [Cmpd 122, (S)-5-((((6-(2-chloro-3-(3-chloro-2-(3-methoxy-4-(((((S)-oxetan-2-yl)methyl)amino)methyl)phenyl)pyridin-4-yl)phenyl)-2-methoxypyridin-3-yl)methyl)amino)methyl)pyrrolidin-2-one]"
3,0.0462,"COc1cc(-c2nccc(-c3cccc(-c4ccc(CNC[C@@H]5CCC(=O)N5)c(OC)n4)c3Cl)c2Cl)cc(F)c1CNC[C@H](C)O [Cmpd 80, (S)-5-((((6-(2-chloro-3-(3-chloro-2-(3-fluoro-4-((((S)-2-hydroxypropyl)amino)methyl)-5-methoxyphenyl)pyridin-4-yl)phenyl)-2-methoxypyridin-3-yl)methyl)amino)methyl)pyrrolidin-2-one]"
4,0.0442,"COc1cc(-c2nccc(-c3cccc(-c4ccc5c(CNC[C@@H]6CCCO6)cn(C)c5n4)c3Cl)c2Cl)ccc1CNC[C@@H]1CCC(=O)N1 [Cmpd 93, (S)-5-(((4-(3-chloro-4-(2-chloro-3-(1-methyl-3-(((((S)-tetrahydrofuran-2-yl)methyl)amino)methyl)-1H-pyrrolo[2,3-b]pyridin-6-yl)phenyl)pyridin-2-yl)-2-methoxybenzyl)amino)methyl)pyrrolidin-2-one]"
5,0.0363,"COc1cc(-c2nccc(-c3cccc(-c4cc(Cl)c(CNC[C@@H]5CCC(=O)N5)c(OC)n4)c3Cl)c2Cl)cc2c1CN(CCO)CC2 [Cmpd 124, (S)-5-((((4-chloro-6-(2-chloro-3-(3-chloro-2-(2-(2-hydroxyethyl)-8-methoxy-1,2,3,4-tetrahydroisoquinolin-6-yl)pyridin-4-yl)phenyl)-2-methoxypyridin-3-yl)methyl)amino)methyl)pyrrolidin-2-one]"
6,0.0314,"COc1cc(-c2nccc(-c3cccc(-c4ccc(CNC[C@@H]5CCC(=O)N5)c(OC)n4)c3Cl)c2Cl)cc(F)c1CNC[C@@H](C)O [Cmpd 81, (S)-5-((((6-(2-chloro-3-(3-chloro-2-(3-fluoro-4-((((R)-2-hydroxypropyl)amino)methyl)-5-methoxyphenyl)pyridin-4-yl)phenyl)-2-methoxypyridin-3-yl)methyl)amino)methyl)pyrrolidin-2-one]"
7,0.0307,"COc1cc(-c2nccc(-c3cccc(-c4cc(Cl)c(CNC[C@@H]5CCC(=O)N5)c(OC)n4)c3Cl)c2Cl)cc2c1CN(C[C@@H](C)O)CC2 [Cmpd 104, (S)-5-((((4-chloro-6-(2-chloro-3-(3-chloro-2-(2-((R)-2-hydroxypropyl)-8-methoxy-1,2,3,4-tetrahydroisoquinolin-6-yl)pyridin-4-yl)phenyl)-2-methoxypyridin-3-yl)methyl)amino)methyl)pyrrolidin-2-one]"
8,0.0279,"COc1cc(-c2nccc(-c3cccc(-c4ccc(CNC[C@@H]5CCC(=O)N5)c(OC)n4)c3Cl)c2Cl)ccc1CNC1CCN(C(C)=O)CC1 [Cmpd 109, (S)-5-((((6-(3-(2-(4-(((1-acetylpiperidin-4-yl)amino)methyl)-3-methoxyphenyl)-3-chloropyridin-4-yl)-2-chlorophenyl)-2-methoxypyridin-3-yl)methyl)amino)methyl)pyrrolidin-2-one]"
9,0.0275,"COc1cc(-c2nccc(-c3cccc(-c4cc(Cl)c(CNC[C@@H]5CCC(=O)N5)c(OC)n4)c3Cl)c2Cl)cc2c1CN(C[C@H](C)O)CC2 [Cmpd 86, (S)-5-((((4-chloro-6-(2-chloro-3-(3-chloro-2-(2-((S)-2-hydroxypropyl)-8-methoxy-1,2,3,4-tetrahydroisoquinolin-6-yl)pyridin-4-yl)phenyl)-2-methoxypyridin-3-yl)methyl)amino)methyl)pyrrolidin-2-one]"
10,0.0249,"COc1cc(-c2nccc(-c3cccc(-c4ccc(CNC[C@@H]5CCC(=O)N5)c(OC)n4)c3Cl)c2Cl)ccc1CN1CC2(CNC(=O)C2)C1 [Cmpd 88, (S)-2-(4-(3-chloro-4-(2-chloro-3-(6-methoxy-5-((((5-oxopyrrolidin-2-yl)methyl)amino)methyl)pyridin-2-yl)phenyl)pyridin-2-yl)-2-methoxybenzyl)-2,6-diazaspiro[3.4]octan-7-one]"
11,0.0101,"COc1cc(-c2nccc(-c3cccc(-c4ccc5c(CN(C)C6CCN(C(C)=O)CC6)cn(C)c5n4)c3Cl)c2Cl)ccc1CNC[C@@H]1CCC(=O)N1 [Cmpd 92, (S)-5-(((4-(4-(3-(3-(((1-acetylpiperidin-4-yl)(methyl)amino)methyl)-1-methyl-1H-pyrrolo[2,3-b]pyridin-6-yl)-2-chlorophenyl)-3-chloropyridin-2-yl)-2-methoxybenzyl)amino)methyl)pyrrolidin-2-one]"
